PubChem BioAssay AID2305 (GlaxoSmithKline (GSK), 2010)
pIC50: −log10 of the molar value.

What follows are molecules tested on P. falciparum 3D7 growth, pLDH absorbance (assay: blood-stage malaria parasite growth potency – strain 3D7, dose response (AID 2305)).

Compound	pIC50
CC[C@H](C)CNC(=O)c1cccc(-c2cccc(CN3CCC(N4CCCC4)CC3)c2)n1	6.15
CC(=O)Oc1c(C2CCN(CCCCNC(=O)c3ccc(NC(=O)c4ccc(Cl)cc4)cc3)CC2)ccc2c1CCCC2	6.12
Cc1[nH]c(C)c(-c2ccc(-c3cccc(Cl)c3)nc2)c(=O)c1Br	6.49
CNC(=O)c1cnc(Nc2ccc(N3CCOCC3)cc2)nc1Nc1cccc(O)c1	6.09
CNC(=O)c1cnc(Nc2ccc(N3CCN(C)CC3)cc2)nc1Nc1cccc(OC)c1	6.12
O=C(O[C@@H]1CN[C@H](C#Cc2cc3ncnc(Nc4ccc5c(cnn5Cc5cccc(F)c5)c4)c3s2)C1)N1CCCC1	6.12
CC1=C(C(=O)Nc2cc3cn[nH]c3cc2F)C(c2cccc(NS(C)(=O)=O)c2)CC(=O)N1 (stereo not drawn)	6.37
CC(=O)Nc1nc(C(=O)Nc2cccc(-c3ccc4c(cnn4CC4CC4)c3)c2)cs1	6.13
CC(C)CNCc1cccc(-c2ccc(CN(C(=O)NCCc3ccccc3)C3CCN(Cc4ccccc4)CC3)cc2)c1	6.12
COc1ccc2nccc([C@@H](O)CN3CCC(NCc4cc5c(F)ccc(F)c5[nH]4)CC3)c2c1	6.85
CN1CCN(c2nsc3ccc(-c4ccc(NC(=O)Nc5ccccc5)cc4)cc23)CC1	6.74
COc1ccc2nccc([C@@H](O)CN3CCC(NC(=O)c4cccc(-c5cc(C)no5)c4)CC3)c2c1	6.47
CCN(CC)C(=O)C(=O)c1c[nH]c2ccc(Cl)cc12	7.10
CC(C)c1ccc(NC(=O)NC2CCN(CCCCCNC(=O)/C=C/c3ccc(Cl)c(Cl)c3)CC2)cc1	6.17
CCCC(CNCc1cccc(SC(F)(F)F)c1)CNc1cc(=O)c2ccccc2[nH]1 (stereo not drawn)	6.15
CC(C)CNCc1cccc(-c2cccc(CN(CCCN3CCN(C)CC3)C(=O)Nc3ccccc3)c2)c1	5.94
O=C(NOCc1ccccc1)c1cc(Cl)ccc1O	5.96
COc1ccc2nccc([C@@H](O)CN3CCC(NCCNc4ccccn4)CC3)c2c1	6.13
COc1cccc(C(=O)NC(C=Cc2ccccc2)c2cc(Cl)c3cccnc3c2O)c1 (stereo not drawn)	6.07
Cc1ccc(CNC(=O)[C@H](CCCN)Nc2nc(Nc3ccccc3)ncc2C)cc1	5.82
O=C(NCc1ccccc1)C1Cc2c([nH]c3ccc(Br)cc23)C2(CCN(Cc3ccccc3)CC2)N1 (stereo not drawn)	6.06
COCCNCc1cccc(-c2ccccc2CN(C(=O)Nc2ccccc2)C2CCN(Cc3ccccc3)CC2)c1	6.04
CNc1cc(-c2ccc3ccnc(N)c3c2)nc(N)n1	6.92
CCc1nc(N)nc(N)c1-c1ccc(F)c(F)c1	6.38
CC(C)=CCN1CCC(C(=O)Nc2ccc(-c3nc4ccccc4[nH]3)cc2)CC1	6.04

Compound	pIC50
Cc1ccc(C(C)C)c(Oc2ccc3nc(N)nc(N)c3c2)c1	8.00
Cc1nn(C2CCS(=O)(=O)C2)c(C)c1C1Nc2ccccc2C(=O)N1Cc1ccc2c(c1)OCO2 (stereo not drawn)	6.29
Nc1nc(N)c2c(Cc3ccccc3)cccc2n1	6.08
CC(=O)c1c(C)[nH]c(C(=O)Nc2ccc(-c3nc4ccc(C)cc4s3)cc2)c1C	6.08
Cc1cc(N[C@@H](Cc2ccccc2)C(=O)NCc2cccs2)nc(Nc2ccccc2)n1	5.91
CC[C@H]1CN2CC[C@H]1C[C@H]2[C@H](O)c1cc(-c2ccc3ccccc3c2)nc2ccc(OC)cc12	7.00
Cc1cccc(-c2ccc(NC(=O)Nc3ccc4nccc(N5CCN(C)CC5)c4c3)cc2C)n1	6.68
COc1ccc(NC(=O)[C@H](Cc2ccccc2)Nc2cc(C)nc(NCCc3ccccc3)n2)cc1	5.91
Cc1ccccc1C(O)CNc1ccnc(Nc2cccc(C#N)c2)n1 (stereo not drawn)	6.06
CCCCc1ccc(NC(=O)Nc2ccc3c(c2)CCNCC3)cc1	6.24
CN1CCC(C(=O)Nc2ccc(-c3ccc(-c4nc5ccc(C(F)(F)F)cc5[nH]4)s3)cc2)CC1	6.00
O=C(NC1CCCCCC1)[C@@H]1CCCN1C(=O)c1ccc(O)c(-c2ccc(Cl)c(Cl)c2)c1	6.47
COc1cc(C=CC(=O)N2CCN(Cc3cccc(C)c3)CC2)ccc1OCc1c(C)noc1C	5.99
NC(N)=NN=Cc1ccccc1OCc1ccccc1Cl	6.14
CC[C@H]1CN2CC[C@H]1C[C@H]2[C@H](O)c1cc(-c2cccc(Cl)c2)nc2ccc(OC)cc12	6.77
CC(CN(C)C)C(=O)Nc1ccc(-c2cccc(-c3nc4ccccc4[nH]3)c2)cc1 (stereo not drawn)	6.14
O=c1cnc2ccc(F)cc2n1CCN1CCC(NCc2cc(-c3ccccc3)cs2)CC1	6.07
O=[N+]([O-])c1ccc2c(c1)c1ccccc1n2Cc1ccccc1O	5.95
O=C(NC1CCC(CCN2CCc3ccc(-c4cnccn4)cc3CC2)CC1)c1cccc(-n2cccn2)c1 (stereo not drawn)	6.05
CN(Cc1cccc(O)c1)C1CCCN(c2cc(NC(=O)c3ccc(F)cc3)ccn2)C1 (stereo not drawn)	5.97
COc1ccc(Nc2nccc(N3CCC(NC(=O)Nc4cccc(OC)c4)C3)n2)cc1 (stereo not drawn)	6.38
O=C(Nc1cccc(-c2ccc(-c3nc4ccccc4[nH]3)s2)c1)c1ccncc1	6.11
COc1ccc(N2CCN(CCCCNC(=O)c3ccc(NC(=O)c4cc(C(F)(F)F)cc(C(F)(F)F)c4)cc3)CC2)c(OC)c1	6.82
CN1CCC(c2nc(N)no2)C1 (stereo not drawn)	6.01
COc1cc2nc(C)nc(Nc3ccc(Cc4ccccc4)cc3)c2cc1OC	6.14

Compound	pIC50
O=C(Nc1ccc(-c2cccc(-c3nc4ccccc4[nH]3)c2)cc1)Nc1ccc(F)c(F)c1F	6.74
Oc1ccc(CCNCc2ccc(OCc3ccccc3)c(OCc3ccccc3)c2)cc1	5.82
Cc1ccc2ccncc2c1N	6.15
N#Cc1cccc(NC(=O)Nc2ccc(-c3csc(-c4nc5ccccc5[nH]4)c3)cc2)c1	6.82
O=C(/C=C/c1ccc(Cl)c(Cl)c1)NC1CCC(CN2CCC(c3coc4ccccc34)CC2)CC1 (stereo not drawn)	6.08
Cc1cc(C2CCN(CCCCNC(=O)c3ccc(-c4ccc(C(F)(F)F)cc4)cc3)CC2)c(C)cc1OCC(N)=O	6.10
CC(C)Nc1cc(C(=O)N[C@@H](Cc2ccccc2)[C@H](O)CNC(C)(C)c2cccc(C(F)(F)F)c2)cc(N2CCCCS2(=O)=O)c1	7.10
O=C(C=Cc1ccc(Cl)c(Cl)c1)NCCCCCN1CCC(CCCNS(=O)(=O)c2ccc(F)cc2)CC1	5.99
Cc1cccc2[nH]c(-c3ccc(-c4ccc(CN5CCCCC5)cc4)cc3)nc12	6.23
CCc1cccc(NC(=O)c2ccc(CN3CCCN(CC4CCCCC4)CC3)cc2)c1	6.40
COc1ccc(C)c(Nc2ccnc(Nc3ccc(-c4cnc[nH]4)cc3)n2)c1	5.86
O=C(CSc1nccn1Cc1ccco1)Nc1cc(C(F)(F)F)ccc1Cl	6.09
CC(C)(C)OC(=O)/C=C(\C(=O)OCc1ccc([N+](=O)[O-])cc1)c1csc(NC(c2ccccc2)(c2ccccc2)c2ccccc2)n1	6.07
Cc1ccc(C2CCN(CCCCNC(=O)c3ccc(-c4ccc(C#N)cc4)cc3)CC2)c(O)c1	6.54
CO/C(=C\C=C\c1cc2cc(Cl)c(Cl)cc2[nH]1)C(=O)NC1C[C@@H](C)N(C)[C@@H](C)C1 (stereo partly drawn)	6.05
O=C1Nc2cccc3c2C1(CCCN1CCC(c2c[nH]c4cc(C(F)(F)F)ccc24)CC1)CCC3 (stereo not drawn)	6.02
CCC(=O)NC(c1ccco1)c1cc(Cl)c2cccnc2c1O (stereo not drawn)	6.06
CC(Cc1ccc(OCCOc2ccccc2)cc1)NCC(O)c1cccc(Cl)c1 (stereo not drawn)	5.98
Cc1cccc(C(=O)NCCCN2CCC(NC(=O)/C=C/c3ccc(Cl)c(Cl)c3)CC2)c1	5.77
O=C(NCCN1CCOCC1)c1ccc(O)c(-c2cccc(C(F)(F)F)c2)c1	6.12
COc1ccc(NC(=O)[C@H](CC(C)C)Nc2cc(C)nc(NCCOc3ccccc3)n2)cc1	6.10
CC1CCCN(S(=O)(=O)c2ccc(NC(=O)c3cc(-c4ccccc4O)n[nH]3)cc2)C1 (stereo not drawn)	6.12
CCOC(=O)CCc1cc(F)c(F)c(OC[C@H](O)CNC(C)(C)C(O)c2ccc3ccccc3c2)c1 (stereo partly drawn)	6.07
O=C(NC1CC1)c1ccc(Nc2nccc(-c3c(-c4cccc(NC(=O)c5c(F)cccc5F)c4)nn4ccccc34)n2)cc1	6.39
CCc1cn2c3c(cc(C(=O)N[C@@H](Cc4cc(F)cc(F)c4)[C@H](O)CNC4CCOCC4)cc13)N(C)S(=O)(=O)CC2	7.52

Compound	pIC50
CC(Nc1nc(Nc2ccc(F)cc2)nc(SCC(N)=O)n1)c1ccccc1 (stereo not drawn)	6.30
CN1CCCN(c2ccnc3cc4c(cc23)N(C(=O)c2ccc(Cl)cc2)CC4)CC1	6.10
CCN(C)C(=O)n1ncc2c3c(N)nc(N)nc3ccc21	6.74
CN(C)CCCNc1c2ccccc2nc2ccccc12	5.98
CN1CCN(c2ncnc3ccc(NC(=O)Nc4ccc(Cl)c(Cl)c4)cc23)CC1	6.59
COc1csc2cc(Br)ccc12	6.07
O=C(/C=C/c1ccc(Cl)c(Cl)c1)NC1CCN(CCCNC(=O)c2cccc(Cl)c2)CC1	6.18
Cc1csc2nc(-c3ccccn3)nc(Nc3ccc4ncsc4c3)c12	5.95
Oc1ccc(Cl)cc1CN1CCC(CCOC(c2ccccc2)c2ccccc2)CC1	6.19
Cc1sc(NC(=O)c2ccc([N+](=O)[O-])cc2Cl)c(C(N)=O)c1C	6.03
Cc1cc(N2CCN(CC3CCN(C)CC3)CC2)nc(Nc2ccc(Br)cc2)n1	6.36
Cc1[nH]c2ccccc2c1C1=CCN(CCCCC2(C)C(=O)Nc3ccccc32)CC1 (stereo not drawn)	6.64
O=S(=O)(Nc1cc2c(cc1O)CCN(C1CCC1)CC2)c1ccc(-c2ccc(F)cc2)cc1	6.38
Cc1cccc2[nH]c(-c3cccc(-c4ccc(NC(=O)C5CCN(C)CC5)cc4)c3)nc12	6.08
Cc1cccc(C(=O)Nc2ccnc(N(C)C3CCN(Cc4cccc(O)c4)CC3)c2)c1	6.03
Cc1ccccc1C1CCN(C2CCC(NC(=O)c3ccc(-c4cc(C(F)(F)F)nn4C)s3)CC2)CC1 (stereo not drawn)	6.07
Cc1cccc2[nH]c(-c3ccc(-c4cccc(NC(=O)COc5ccccc5C(N)=O)c4)s3)nc12	6.14
COc1cc(OC)c(NC(=O)C2c3ccccc3C(=O)N(C)C2c2cccs2)cc1Cl (stereo not drawn)	6.12
FC(F)(F)c1ccc2nc(-c3ccc(-c4cccc(CNCc5ccccc5)c4)cc3)[nH]c2c1	6.66
N=C(N)c1ccc(C(=O)Nc2cccc(C(=N)N)c2)cc1	5.98
CCOC(=O)c1c(-c2ccccc2)c(C(=O)OCC)n2ccccc12	6.21
CCCCNc1nccc2ccc(-c3ccncc3)cc12	6.11
CC(C)S(=O)(=O)N1CCN(Cc2ccc3c(c2)nc(NC(=O)c2ccsc2)n3C[C@H](O)c2ccccc2)CC1	6.57
